Source: patent publication US5455222A, “1-substituted-5-thiomethylthiocyanato-1H-tetrazoles, compositions containing them and their use as antimicrobial and marine antifouling agents” (The Dow Chemical Company, priority 1994, dated 1995)
≈ marks a conversion by molar mass, not a printed value.

What was measured:
[1] = tested on: Penicillium chrysogenum (Pc); experiment: Minimum inhibitory concentration (MIC), yeast/fungi in malt yeast agar; format: cell-based, Penicillium chrysogenum ATCC 9480; conditions: 30° C., 72 hours for fungi
Protocol: (§1) The minimum inhibitory concentration (MIC) for the compounds listed in Table I is determined for 9 bacteria, using nutrient agar, and 7 yeast and fungi, using malt yeast agar. A one percent solution of the test compound is prepared in a mixture of acetone and water.
(§2) Malt yeast agar is prepared by adding 3 g yeast extract and 45 g malt agar per liter of deionized water. The specific agar is dispensed in 30 mL aliquots into 25×200 mm test tubes, capped and autoclaved for 15 minutes at 115° C.
(§3) The test tubes containing the agar are cooled in a water bath until the temperature of the agar is 48° C. Then, an appropriate amount of the one percent solution of the test compound is added (except in the controls where no compound is added) to the respective test tubes so that the final concentrations are 500, 250, 100, 50, 25, 10, 5, 2.5, 1.0 and zero parts per million of the test compound in the agar, thus having a known concentration of test compound dispersed therein. The contents of the test tubes are then transferred to respective petri plates. After drying for 24 hours, the petri plates containing nutrient agar are inoculated with bacteria and those containing malt yeast agar are inoculated with yeast and fungi.
(§4) The inoculation with the yeast and fungi is accomplished as follows. Cultures of yeast and fungi are incubated for seven days on malt yeast agar at 30° C. These cultures are used to prepare suspensions by the following procedure. A suspension of each organism is prepared by adding 10 mL of sterile saline and 10 microliters of octylphenoxy polyethoxy ethanol to the agar slant of yeast or fungi. The sterile saline/octylphenoxy polyethoxy ethanol solution is then agitated with a sterile swab to suspend the microorganism grown on the slant. Each resulting suspension is diluted into sterile saline (1 part suspension to 9 parts sterile saline). Aliquots of these dilutions are placed in individual wells of Steer's Replicator and petri plates inoculated as previously described. The petri plates are incubated at 30° C. and read after 48 hours for yeast and 72 hours for fungi.
(§5) Table II lists the bacteria, yeast and fungi used in the MIC test described above along with their respective American Type Culture Collection (ATCC) identification numbers.
(§6) In Tables III and IV, the MIC values of the compounds described in Table I as compared to the MIC of a standard commercial preservative (with 1-(3-chloroallyl)-3,5,7-triaza-1-azoniaadamantane chloride as the active agent and referred to in Tables III and IV as "STANDARD I") are set forth for the bacteria organisms and yeast/fungi organisms which are listed in Table II.

Bacillus subtilis (Bs) = experiment: Minimum inhibitory concentration (MIC), bacteria in nutrient agar; format: cell-based, Bacillus subtilis ATCC 8473; conditions: 48 hours
Protocol: as §1
(§7) Nutrient agar is prepared at pH 6.8, representing a neutral medium, and at pH 8.2, representing an alkaline medium. The nutrient agars are prepared by adding 23 g of nutrient agar to one liter of deionized water. In addition, the alkaline medium is prepared by adjusting a 0.04M solution of N-[tris-(hydroxymethyl)methyl]glycine buffered deionized water with concentrated sodium hydroxide to a pH of 8.5.
as §3
(§8) The inoculation with bacteria is accomplished by using the following procedure. Twenty-four hour-cultures of each of the bacteria are prepared by incubating the respective bacteria in tubes containing nutrient broth for 24 hours at 30° C. in a shaker. Dilutions of each of the 24 hour-cultures are made so that nine separate suspensions (one for each of the nine test bacteria) are made, each containing 10^8 colony forming units (CFU) per mL of suspension of a particular bacteria. Aliquots of 0.3 mL of each of the bacterial suspensions are used to fill the individual wells of Steer's Replicator. For each microbial suspension, 0.3 mL was used to fill three wells (i.e., three wells of 0.3 mL each) so that for the nine different bacteria, 27 wells are filled. The Steer's Replicator is then used to inoculate both the neutral and alkaline pH nutrient agar petri plates.
(§9) The inoculated petri plates are incubated at 30° C. for 48 hours and then read to determine if the test compound which is incorporated into the agar prevented growth of the respective bacteria.
as §5, §6

[2] = tested on: Pseudomonas aeruginosa (PRD-10); experiment: as above; format: cell-based, Pseudomonas aeruginosa ATCC 15442; conditions: 48 hours
Protocol: as §1, §7, §3, §8, §9, §5, §6

[3] = tested on: Salmonella choleraesuis (Sc); experiment: as above; format: cell-based, Salmonella choleraesuis ATCC 10708; conditions: Salmonella enterica, 48 hours
Protocol: as §1, §7, §3, §8, §9, §5, §6

[4] = tested on: Staphylococcus aureus (Sa); experiment: as above; format: cell-based, Staphylococcus aureus ATCC 6538; conditions: 48 hours
Protocol: as §1, §7, §3, §8, §9, §5, §6

Escherichia coli (Ec) = experiment: as above; format: cell-based, Escherichia coli ATCC 11229; conditions: 48 hours
Protocol: as §1, §7, §3, §8, §9, §5, §6

Proteus vulgaris (Pv) = experiment: as above; format: cell-based, Proteus vulgaris ATCC 881; conditions: 48 hours
Protocol: as §1, §7, §3, §8, §9, §5, §6

Trichoderma viride (Tv) = experiment: Minimum inhibitory concentration (MIC), yeast/fungi in malt yeast agar; format: cell-based, Trichoderma viride ATCC 8678; conditions: 30° C., 72 hours for fungi
Protocol: as §1, §2, §3, §4, §5, §6

Fusarium oxysporum (Fo) = experiment: as above; format: cell-based, Fusarium oxysporum ATCC 48112; conditions: 30° C., 72 hours for fungi
Protocol: as §1, §2, §3, §4, §5, §6

Aspergillus niger (An) = experiment: as above; format: cell-based, Aspergillus niger ATCC 16404; conditions: 30° C., 72 hours for fungi
Protocol: as §1, §2, §3, §4, §5, §6

[5] = tested on: Klebsiella pneumoniae (Kp); experiment: Minimum inhibitory concentration (MIC), bacteria in nutrient agar; format: cell-based, Klebsiella pneumoniae ATCC 8308; conditions: 48 hours
Protocol: as §1, §7, §3, §8, §9, §5, §6

[6] = tested on: Enterobacter aerogenes (Ea); experiment: as above; format: cell-based, Enterobacter aerogenes ATCC 13048; conditions: Klebsiella aerogenes, 48 hours
Protocol: as §1, §7, §3, §8, §9, §5, §6

[7] = tested on: Saccharomyces cerevisiae (Sc); experiment: Minimum inhibitory concentration (MIC), yeast/fungi in malt yeast agar; format: cell-based, Saccharomyces cerevisiae ATCC 4105; conditions: 30° C., 48 hours for yeast
Protocol: as §1, §2, §3, §4, §5, §6

Candida albicans (Ca) = experiment: as above; format: cell-based, Candida albicans ATCC 10231; conditions: 30° C., 48 hours for yeast
Protocol: as §1, §2, §3, §4, §5, §6

[8] = tested on: Aureobasidium pullulan (Ap); experiment: as above; format: cell-based, Aureobasidium pullulan ATCC 16622; conditions: 30° C., read after 48 hours for yeast and 72 hours for fungi
Protocol: as §1, §2, §3, §4, §5, §6

[9] = tested on: Pseudomonas aeruginosa (Pa); experiment: Minimum inhibitory concentration (MIC), bacteria in nutrient agar; format: cell-based, Pseudomonas aeruginosa ATCC 10145; conditions: nutrient agar pH 8.2, 30° C., 48 hours
Protocol: as §1, §7, §3, §8, §9, §5, §6

Compound	MIC [1] [mg/L]	MIC (Bacillus subtilis (Bs); nutrient agar pH 6.8, 30° C.) [mg/L]	MIC (Bacillus subtilis (Bs); nutrient agar pH 8.2, 30° C.) [mg/L]	MIC ([2]; nutrient agar pH 6.8, 30° C.) [mg/L]	MIC ([2]; nutrient agar pH 8.2, 30° C.) [mg/L]	MIC ([3]; nutrient agar pH 6.8, 30° C.) [mg/L]	MIC ([3]; nutrient agar pH 8.2, 30° C.) [mg/L]	MIC ([4]; nutrient agar pH 6.8, 30° C.) [mg/L]	MIC ([4]; nutrient agar pH 8.2, 30° C.) [mg/L]	MIC (Escherichia coli (Ec); nutrient agar pH 6.8, 30° C.) [mg/L]	MIC (Escherichia coli (Ec); nutrient agar pH 8.2, 30° C.) [mg/L]	MIC (Proteus vulgaris (Pv); nutrient agar pH 6.8, 30° C.) [mg/L]	MIC (Proteus vulgaris (Pv); nutrient agar pH 8.2, 30° C.) [mg/L]	MIC (Trichoderma viride (Tv)) [mg/L]	MIC (Fusarium oxysporum (Fo)) [mg/L]	MIC (Aspergillus niger (An)) [mg/L]	MIC ([5]; nutrient agar pH 6.8, 30° C.) [mg/L]	MIC ([5]; nutrient agar pH 8.2, 30° C.) [mg/L]	MIC ([6]; nutrient agar pH 6.8, 30° C.) [mg/L]	MIC ([6]; nutrient agar pH 8.2, 30° C.) [mg/L]	other results
CC(C)(C)c1ccc(-n2nnnc2SCSC#N)cc1 [IX, 1-(tertiary-Butylphenyl)-5-thiomethylthiocyanato-1H-tetrazole]	2.5 (≈ 8.19 µM)	25 (≈ 81.9 µM)	50 (≈ 164 µM)	500 (≈ 1640 µM)	500 (≈ 1640 µM)	50 (≈ 164 µM)	100 (≈ 327 µM)	50 (≈ 164 µM)	50 (≈ 164 µM)	50 (≈ 164 µM)	250 (≈ 819 µM)	250 (≈ 819 µM)	100 (≈ 327 µM)	100 (≈ 327 µM)	25 (≈ 81.9 µM)	5 (≈ 16.4 µM)	250 (≈ 819 µM)	100 (≈ 327 µM)	500 (≈ 1640 µM)	500 (≈ 1640 µM)	MIC [7]: 10 mg/L (≈ 32.7 µM); MIC (Candida albicans (Ca)): 100 mg/L (≈ 327 µM); MIC [8]: 2.5 mg/L (≈ 8.19 µM)
N#CSCSc1nnnn1-c1ccc(Br)cc1 [IV, 1-(4-Bromophenyl)-5-thiomethylthiocyanato-1H-tetrazole]	< 10	< 10	25 (≈ 76.2 µM)	500 (≈ 1520 µM)	500 (≈ 1520 µM)	500 (≈ 1520 µM)	500 (≈ 1520 µM)	500 (≈ 1520 µM)	500 (≈ 1520 µM)	500 (≈ 1520 µM)	500 (≈ 1520 µM)	500 (≈ 1520 µM)	500 (≈ 1520 µM)	25 (≈ 76.2 µM)	< 10	< 10	500 (≈ 1520 µM)	500 (≈ 1520 µM)	500 (≈ 1520 µM)	500 (≈ 1520 µM)	MIC [7]: < 10 mg/L; MIC (Candida albicans (Ca)): 25 mg/L (≈ 76.2 µM); MIC [8]: < 10 mg/L
N#CSCSc1nnnn1-c1ccc(C#N)cc1 [XII, 1-(4-Cyanophenyl)-5-thiomethylthiocyanato-1H-tetrazole]	< 10	< 10	40 (≈ 146 µM)	500 (≈ 1820 µM)	400 (≈ 1460 µM)	500 (≈ 1820 µM)	400 (≈ 1460 µM)	20 (≈ 72.9 µM)	100 (≈ 365 µM)	200 (≈ 729 µM)	400 (≈ 1460 µM)	100 (≈ 365 µM)	200 (≈ 729 µM)	40 (≈ 146 µM)	20 (≈ 72.9 µM)	< 10	100 (≈ 365 µM)	100 (≈ 365 µM)	500 (≈ 1820 µM)	> 400	MIC [9]: 200 mg/L (≈ 729 µM); MIC [7]: 40 mg/L (≈ 146 µM); MIC (Candida albicans (Ca)): 200 mg/L (≈ 729 µM); MIC [8]: < 10 mg/L
Cc1ccc(-n2nnnc2SCSC#N)cc1 [VII, 1-(4-Methylphenyl)-5-thiomethylthiocyanato-1H-tetrazole]	< 1	< 10	< 10	500 (≈ 1900 µM)	250 (≈ 949 µM)	> 500	> 500	25 (≈ 94.9 µM)	50 (≈ 190 µM)	500 (≈ 1900 µM)	500 (≈ 1900 µM)	100 (≈ 380 µM)	250 (≈ 949 µM)	10 (≈ 38 µM)	5 (≈ 19 µM)	2.5 (≈ 9.49 µM)	250 (≈ 949 µM)	100 (≈ 380 µM)	> 500	> 500	MIC [7]: < 1 mg/L; MIC (Candida albicans (Ca)): 10 mg/L (≈ 38 µM); MIC [8]: < 1 mg/L
